Consider seven compounds from ChEMBL document CHEMBL1145741, “Inhibition of bacterial IF2 binding to fMet-tRNA((fMet)) by aminoglycosides” (Bioorg Med Chem Lett, 2003).

Experiment [1] has as its system Staphylococcus aureus. Description: (§1) Maximal inhibition of the aminoglycoside on Staphylococcus aureus IF-2 binding to fMet-tRNA(fMet).
Experiment [2] concerns Staphylococcus aureus. Description: (§2) Denaturation rate constant of IF2 in the presence of aminoglycoside.
Experiment [3] can be described thus: (§3) Inhibitory activity against the displacement of Picogreen from fMet-tRNA(fMet) by the aminoglycoside. On the set-up: species or system Staphylococcus aureus.
Experiment [4] is described as follows: Inhibitory activity of the aminoglycoside on Staphylococcus aureus IF-2 binding to fMet-tRNA(fMet).
Experiment [5] deals with Staphylococcus aureus. Description: (§4) Maximal inhibition against the displacement of Picogreen from fMet-tRNA(fMet) by the aminoglycoside.
The subject of experiment [6] is Staphylococcus aureus. The description is as §2. The format is functional.
Experiment [7] concerns Staphylococcus aureus. The experiment is described as §3. The format is functional.
For experiment [8], the system named is Staphylococcus aureus. Description: Inhibitory activity of the aminoglycoside on Staphylococcus aureus IF-2 binding to fMet-tRNA (fMet). The class given is functional.
Experiment [9] has as its system Staphylococcus aureus. The description is as §4. The format is functional.
Experiment [10] concerns Staphylococcus aureus. The experiment is described as §1. The format is functional.

Each structure is given as a SMILES string.

As usually defined, the inhibition is the share of the control response that was lost under treatment. Read a high inhibition as a response far below the control. Usually IC50 stands for the concentration needed to halve the response being measured. Read a low IC50 as greater potency in that assay. With `NCC[C@H](O)C(=O)N[C@@H]1C[C@H](N)[C@@H](O[C@H]2O[C@H](CN)[C@@H](O)[C@H](O)[C@H]2O)[C@H](O)[C@H]1O[C@H]1O[C@H](CO)[C@@H](O)[C@H](N)[C@H]1O` [AMIKACIN], the inhibition with Staphylococcus aureus [1] came to 43%; in the experiment on Staphylococcus aureus [5] it was 85%. Also, the Denaturation rate constant in the experiment with Staphylococcus aureus [2] stood at 0.093 min⁻¹. In addition, the IC50 was 160 nM in experiment [3] and 1020 nM in experiment [4].
With `NC[C@@H]1O[C@H](O[C@H]2[C@@H](O)[C@H](O[C@@H]3[C@@H](O)[C@H](N)C[C@H](N)[C@H]3O[C@H]3O[C@H](CN)[C@@H](O)[C@H](O)[C@H]3N)O[C@@H]2CO)[C@H](N)[C@@H](O)[C@@H]1O` [FRAMYCETIN], the inhibition amounted to 76% in the experiment with Staphylococcus aureus [1] and 100% in the experiment with Staphylococcus aureus [5]. For the same compound, the Denaturation rate constant with Staphylococcus aureus [2] was found to be 0.095 min⁻¹. In addition, the half-inhibitory concentration (IC50) in [3] stood at 9 nM; in [4] it was 50 nM.
For the compound `CNC1C(O)C(OC2C(N)CC(N)C(OC3OC(CN)CCC3N)C2O)OCC1(C)O` (configuration not stated) [GENTAMICIN C1A], in the experiment with Staphylococcus aureus [1], the inhibition came to 66%. The compound further came in with a concentration for half-maximal inhibition (IC50) in experiment [4] of 450 nM.
On to `CN[C@@H]1C[C@H](N)[C@@H](O)[C@H](O[C@H]2O[C@H](CO)[C@H](O)[C@@H]3O[C@@]4(O[C@@H]23)O[C@H]([C@H](N)CO)[C@H](O)[C@H](O)[C@H]4O)[C@H]1O` [HYGROMYCIN], for which the inhibition came to 84% with Staphylococcus aureus [1] and 81% with Staphylococcus aureus [5]. The Denaturation rate constant in the experiment with Staphylococcus aureus [2] amounted to 0.096 min⁻¹. In addition, the 50% inhibitory concentration (IC50) was 278 nM in experiment [3] and 66000 nM in experiment [4].
On to `NC[C@@H]1O[C@@H](O[C@H]2[C@H](O)[C@@H](O[C@H]3O[C@H](CO)[C@@H](O)[C@H](N)[C@H]3O)[C@H](N)C[C@@H]2N)[C@@H](O)[C@H](O)[C@H]1O` [KANAMYCIN A], for which the results for the inhibition in the experiment on Staphylococcus aureus [1] and with Staphylococcus aureus [5] were 61% and 92%, respectively. Besides, the Denaturation rate constant in the experiment with Staphylococcus aureus [2] is 0.092 min⁻¹. Moreover, the figures for the half-maximal inhibitory concentration (IC50) in [3] and in [4] were 24 nM and 17800 nM, respectively.
A word on the Inhibition: it is the drop in the measured response relative to a control, in per cent. The low end stands for little suppression, the high end for strong suppression. In the case of `CN[C@@H]1[C@@H](O)[C@@H](O[C@@H]2[C@@H](O)[C@H](O[C@H]3OC(CN)=CC[C@H]3N)[C@@H](N)C[C@H]2N)OC[C@]1(C)O` [SISOMICIN], the Denaturation rate constant with Staphylococcus aureus [6] came out at 0.087 min⁻¹. For the same compound, the IC50 in the experiment on Staphylococcus aureus [7] and in the experiment on Staphylococcus aureus [8] was 7 nM in each case. The compound also displayed an inhibition with Staphylococcus aureus [9] of 100%. Besides, the Inhibition in the experiment on Staphylococcus aureus [10] stood at 75%.
In the case of `CN[C@@H]1[C@H](O[C@H]2[C@H](O[C@H]3[C@H](O)[C@@H](O)[C@H](N=C(N)N)[C@@H](O)[C@@H]3N=C(N)N)O[C@@H](C)[C@]2(O)C=O)O[C@@H](CO)[C@H](O)[C@H]1O` [STREPTOMYCIN], the inhibition is 43% in the experiment on Staphylococcus aureus [1] and 95% in the experiment on Staphylococcus aureus [5]. Further, the Denaturation rate constant with Staphylococcus aureus [2] turned out to be 0.094 min⁻¹. For the same compound, the IC50 in [3] amounted to 1790 nM; in experiment [4], 1490 nM.
